From patent US20230348416A1, “GPR52 MODULATOR COMPOUNDS” (Heptares Therapeutics Limited, priority 2020, published 2023)

Target: T1, human GPR52 (Homo sapiens, UniProt Q9Y2T5)
T1 construct: expressed in transfected cells; host or cells: HEKf suspension cells infected with BacMam virus
Experiment: GPR52 Agonist Functional cAMP Assay
Assay type: cell-based
Settings: for EC50: HEKf cells infected with human GPR52 BacMam virus, HTRF cAMP, 30 min at 37° C., read-out: PEC50 average (converted); for Emax / Emax (%): maximal response normalised to DMSO (0%) and compound 7m of J. Med. Chem., 2014, 57, 5226 (100%)
Protocol: GPR52 Agonist Functional cAMP Assay
HEKf suspension cells were infected for 24 h with 0.1% v/v human GPR52 expressing BacMam virus, a modified baculovirus designed for mammalian gene expression. Following BacMam infection, cells were pelleted by centrifugation (335 g, 5 min), resuspended in cell freezing medium (Sigma) and frozen at −150° C. until required. On experiment day, 25 nL GPR52 compound dilutions, prepared in DMSO, were stamped onto proxiplates (PerkinElmer) by a LabCyte ECHO acoustic dispenser. Frozen cells were thawed and resuspended in assay stimulation buffer (Cisbio) containing 0.5 mM 3-iso-butyl-1-methylxanthine (IBMX, Sigma) to achieve a density of 2000 cells per well. 10 μl cells were added to assay plates using a Multidrop Combi Reagent Dispenser (ThermoFisher) before centrifugation (335 g, 1 min). Cells were incubated with compounds at 37° C. for 30 min prior to addition of cAMP detection reagents (HiRange cAMP kit, Cisbio) which were prepared according to the manufacturer's instructions. Plates were shaken for 1 h at room temperature before reading on a PHERAstar FS plate reader (BMG Labtech) using standard HTRF settings. HTRF ratios were obtained by dividing the acceptor emissions (665 nm) by the donor emissions (620 nm) and multiplying by 10,000.

T1 sequence (Q9Y2T5 whole entry): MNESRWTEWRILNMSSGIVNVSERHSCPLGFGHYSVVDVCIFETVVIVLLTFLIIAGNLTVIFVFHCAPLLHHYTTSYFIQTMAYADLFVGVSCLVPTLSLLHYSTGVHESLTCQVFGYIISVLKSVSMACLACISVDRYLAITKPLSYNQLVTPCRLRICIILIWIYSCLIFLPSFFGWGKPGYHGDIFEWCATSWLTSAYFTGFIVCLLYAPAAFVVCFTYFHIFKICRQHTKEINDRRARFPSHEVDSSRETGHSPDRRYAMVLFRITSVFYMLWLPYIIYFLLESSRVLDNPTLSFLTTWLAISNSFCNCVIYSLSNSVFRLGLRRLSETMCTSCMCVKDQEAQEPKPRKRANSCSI

Row | Structure (SMILES) | EC50 | Emax | Emax (%)
1 | CC(=O)NC1CCCc2c1nnn2-c1cc(Cc2cc(F)cc(C(F)F)c2)ccn1 (single isomer, unassigned) [Example 13 Isomer 1, N-(1-(4-(3-(difluoromethyl)-5-fluorobenzyl)pyridin-2-yl)-4,5,6,7-tetrahydro-1H-benzo[d][1,2,3]triazol-4-yl)acetamide] | 501 nM | 73% | 
2 | CC(=O)NC1CCCc2c1nnn2-c1cc(Cc2cc(F)cc(C(F)F)c2)ccn1 (single isomer, unassigned) [Example 13 Isomer 2, N-(1-(4-(3-(difluoromethyl)-5-fluorobenzyl)pyridin-2-yl)-4,5,6,7-tetrahydro-1H-benzo[d][1,2,3]triazol-4-yl)acetamide] | 5.01 nM |  | 93%
3 | CCC(=O)NC1CCCc2c1nnn2-c1cc(Cc2cc(F)cc(C(F)(F)F)c2)ccn1 (stereo not drawn) [Example 3, N-(1-(4-(3-fluoro-5-(trifluoromethyl)benzyl)pyridin-2-yl)-4,5,6,7-tetrahydro-1H-benzo[d][1,2,3]triazol-4-yl)propionamide] | 25.1 nM | 96% | 
4 | O=C(NC1CCCc2c1nnn2-c1cc(Cc2cc(F)cc(C(F)(F)F)c2)ccn1)C(F)F (stereo not drawn) [Example 4, 2,2-difluoro-N-(1-(4-(3-fluoro-5-(trifluoromethyl)benzyl)pyridin-2-yl)-4,5,6,7-tetrahydro-1H-benzo[d][1,2,3]triazol-4-yl)acetamide] | 25.1 nM | 87% | 
5 | O=C(CF)NC1CCCc2c1nnn2-c1cc(Cc2cc(F)cc(C(F)(F)F)c2)ccn1 (stereo not drawn) [Example 5, 2-fluoro-N-[1-(4-{[3-fluoro-5-(trifluoromethyl)phenyl]methyl}pyridin-2-yl)-4,5,6,7-tetrahydro-1H-benzotriazol-4-yl]acetamide] | 39.8 nM | 94% | 
6 | CC(=O)NC1CCCc2c1nnn2-c1cc(Oc2cc(F)cc(C(F)(F)F)c2)ccn1 (stereo not drawn) [Example 6, N-(1-(4-(3-fluoro-5-(trifluoromethyl)phenoxy)pyridin-2-yl)-4,5,6,7-tetrahydro-1H-benzo[d][1,2,3]triazol-4-yl)acetamide] | 126 nM | 89% | 
7 | COCCNC1CCCc2c1nnn2-c1cc(Cc2cc(F)cc(C(F)(F)F)c2)ccn1 (stereo not drawn) [Example 8, 1-(4-(3-fluoro-5-(trifluoromethyl)benzyl)pyridin-2-yl)-N-(2-methoxyethyl)-4,5,6,7-tetrahydro-1H-benzo[d][1,2,3]triazol-4-amine] | 50.1 nM | 94% | 
8 | CC(=O)NC1CCCc2c1nnn2-c1cc(Cc2cccc(C(F)(F)F)c2)ccn1 (stereo not drawn) [Example 11, N-(1-(4-(3-(trifluoromethyl)benzyl)pyridin-2-yl)-4,5,6,7-tetrahydro-1H-benzo[d][1,2,3]triazol-4-yl)acetamide] | 200 nM | 91% | 
9 | CC(=O)NC1CCCc2c1nnn2-c1cc(Cc2cc(F)cc(OC(F)F)c2)ccn1 (stereo not drawn) [Example 12, N-(1-(4-(3-(difluoromethoxy)-5-fluorobenzyl)pyridin-2-yl)-4,5,6,7-tetrahydro-1H-benzo[d][1,2,3]triazol-4-yl)acetamide] | 31.6 nM | 87% | 
10 | CC(=O)NC1CCCc2c1nnn2-c1cc(Cc2cc(F)cc(C(F)F)c2)ccn1 (stereo not drawn) [Example 13, N-(1-(4-(3-(difluoromethyl)-5-fluorobenzyl)pyridin-2-yl)-4,5,6,7-tetrahydro-1H-benzo[d][1,2,3]triazol-4-yl)acetamide] | 12.6 nM | 93% | 
11 | CC(=O)NC1CCCc2c1nnn2-c1cc(Cc2cc(F)cc(CF)c2)ccn1 (stereo not drawn) [Example 14, N-(1-(4-(3-fluoro-5-(fluoromethyl)benzyl)pyridin-2-yl)-4,5,6,7-tetrahydro-1H-benzo[d][1,2,3]triazol-4-yl)acetamide] | 50.1 nM | 90% | 

The next lines start with the values.

Row | EC50 | Emax | Emax (%) | Structure (SMILES)
12 | 12.6 nM | 101% |  | NC1CCCc2c1nnn2-c1cc(Cc2cc(F)cc(C(F)(F)F)c2)ccn1 (single isomer, unassigned) [Example 1 Isomer 1, 1-(4-(3-fluoro-5-(trifluoromethyl)benzyl)pyridin-2-yl)-4,5,6,7-tetrahydro-1H-benzo[d][1,2,3]triazol-4-amine]
13 | 63.1 nM |  | 97% | NC1CCCc2c1nnn2-c1cc(Cc2cc(F)cc(C(F)(F)F)c2)ccn1 (single isomer, unassigned) [Example 1 Isomer 2, 1-(4-(3-fluoro-5-(trifluoromethyl)benzyl)pyridin-2-yl)-4,5,6,7-tetrahydro-1H-benzo[d][1,2,3]triazol-4-amine]
14 | 2510 nM | 78% |  | CC(=O)NC1CCCc2c1nnn2-c1cc(Cc2cc(F)cc(C(F)(F)F)c2)ccn1 (single isomer, unassigned) [Example 2 Isomer 2, N-(1-(4-(3-fluoro-5-(trifluoromethyl)benzyl)pyridin-2-yl)-4,5,6,7-tetrahydro-1H-benzo[d][1,2,3]triazol-4-yl)acetamide]
15 | 25.1 nM | 100% |  | NC1CCCc2c1nnn2-c1cc(Cc2cc(F)cc(C(F)(F)F)c2)ccn1 (stereo not drawn) [Example 1, 1-(4-(3-fluoro-5-(trifluoromethyl)benzyl)pyridin-2-yl)-4,5,6,7-tetrahydro-1H-benzo[d][1,2,3]triazol-4-amine]
16 | 31.6 nM | 98% |  | CNC1CCCc2c1nnn2-c1cc(Cc2cc(F)cc(C(F)(F)F)c2)ccn1 (stereo not drawn) [Example 7, 1-(4-(3-fluoro-5-(trifluoromethyl)benzyl)pyridin-2-yl)-N-methyl-4,5,6,7-tetrahydro-1H-benzo[d][1,2,3]triazol-4-amine]
17 | 100 nM | 93% |  | Fc1cc(Cc2ccnc(-n3nnc4c3CCCC4NC3COC3)c2)cc(C(F)(F)F)c1 (stereo not drawn) [Example 9, 1-(4-(3-fluoro-5-(trifluoromethyl)benzyl)pyridin-2-yl)-N-(oxetan-3-yl)-4,5,6,7-tetrahydro-1H-benzo[d][1,2,3]triazol-4-amine]
18 | 31.6 nM | 94% |  | Fc1cc(Cc2ccnc(-n3nnc4c3CCCC4NC3CCOC3)c2)cc(C(F)(F)F)c1 (stereo not drawn) [Example 10, 1-(4-(3-fluoro-5-(trifluoromethyl)benzyl)pyridin-2-yl)-N-(tetrahydrofuran-3-yl)-4,5,6,7-tetrahydro-1H-benzo[d][1,2,3]triazol-4-amine]
